Reference: the supplement of paper PMC10307832

How the values were obtained:
Assay in all cases: relative viability (nuclei count vs DMSO), 5 days (fraction); higher = more cells survive
Adavosertib + Dasatinib = compound: C=CCn1c(=O)c2cnc(Nc3ccc(N4CCN(C)CC4)cc3)nc2n1-c1cccc(C(C)(C)O)n1 [Adavosertib] + Cc1nc(Nc2ncc(C(=O)Nc3c(C)cccc3Cl)s2)cc(N2CCN(CCO)CC2)n1 [Dasatinib] (partner 0.075 µM)
Method in brief: (§1)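 Relative viability was taken as the ratio of nuclei in treated wells to nuclei in vehicle wells. Lung cancer cell lines in 1536-well plates received compounds by pin tool one day after seeding, either one drug alone or a fixed anchor-drug dose plus five library-drug doses (not always all listed) in √10 steps. Nuclei were counted on 4× images after 5 days of treatment, and values are medians of duplicate plates.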

Nelarabine + Navitoclax = compound: COc1nc(N)nc2c1ncn2[C@@H]1O[C@H](CO)[C@@H](O)[C@@H]1O [Nelarabine] + CC1(C)CCC(c2ccc(Cl)cc2)=C(CN2CCN(c3ccc(C(=O)NS(=O)(=O)c4ccc(N[C@H](CCN5CCOCC5)CSc5ccccc5)c(S(=O)(=O)C(F)(F)F)c4)cc3)CC2)C1 [Navitoclax] (partner 0.5 µM)
Method in brief: as §1

Nelarabine + Tozasertib = compound: COc1nc(N)nc2c1ncn2[C@@H]1O[C@H](CO)[C@@H](O)[C@@H]1O [Nelarabine] + Cc1cc(Nc2cc(N3CCN(C)CC3)nc(Sc3ccc(NC(=O)C4CC4)cc3)n2)n[nH]1 [Tozasertib] (partner 0.1 µM)
Method in brief: as §1

Nelarabine + Decitabine = compound: COc1nc(N)nc2c1ncn2[C@@H]1O[C@H](CO)[C@@H](O)[C@@H]1O [Nelarabine] + Nc1ncn([C@H]2C[C@H](O)[C@@H](CO)O2)c(=O)n1 [Decitabine] (partner 2 µM)
Method in brief: as §1

EMC-BAC-2
relative viability (Adavosertib + Dasatinib; first compound 0.01 µM): 0.333 | relative viability (Adavosertib + Dasatinib; first compound 0.03162 µM): 0.339 | relative viability (Adavosertib + Dasatinib; first compound 0.1 µM): 0.324 | relative viability (Adavosertib + Dasatinib; first compound 0.3162 µM): 0.261 | relative viability (Nelarabine + Navitoclax; first compound 0.01 µM): 1.45 | relative viability (Nelarabine + Navitoclax; first compound 0.03162 µM): 1.11 | relative viability (Nelarabine + Navitoclax; first compound 0.1 µM): 1.25 | relative viability (Nelarabine + Navitoclax; first compound 0.3162 µM): 1.38 | relative viability (Nelarabine + Navitoclax; first compound 1 µM): 1.16 | relative viability (Nelarabine + Tozasertib; first compound 0.01 µM): 0.307 | relative viability (Nelarabine + Tozasertib; first compound 0.03162 µM): 0.236 | relative viability (Nelarabine + Tozasertib; first compound 0.1 µM): 0.277 | relative viability (Nelarabine + Tozasertib; first compound 0.3162 µM): 0.239 | relative viability (Nelarabine + Tozasertib; first compound 1 µM): 0.297 | relative viability (Nelarabine + Decitabine; first compound 0.01 µM): 0.885 | relative viability (Nelarabine + Decitabine; first compound 0.03162 µM): 1.11 | relative viability (Nelarabine + Decitabine; first compound 0.1 µM): 0.912 | relative viability (Nelarabine + Decitabine; first compound 0.3162 µM): 0.864 | relative viability (Nelarabine + Decitabine; first compound 1 µM): 0.995
